{"source": "patent US11466044B2", "about": "(WAYNE STATE UNIVERSITY, priority 2017, dated 2022)", "key": {"[1]": {"tested_on": "mitochondrial ribosome (human chimeric)", "format": "biochemical", "excerpt": "(§1) The antiribosomal activity of these compounds was investigated with cell-free translation assays using both wild type bacterial ribosomes and hybrid ribosomes carrying eukaryotic decoding A sites enabling the prediction of selectivity."}, "[2]": {"tested_on": "cytosolic ribosome (human chimeric)", "format": "biochemical", "excerpt": "as §1"}, "N. gonorrhoeae": {"tested_on": "N. gonorrhoeae", "assay": "Disk diffusion, N. gonorrhoeae", "format": "cell-based", "settings": "25 nmol"}, "[3]": {"tested_on": "wild type bacterial ribosomes", "assay": "in-vitro translation assay, bacterial ribosomes", "format": "biochemical", "excerpt": "as §1"}, "M. abscessus": {"tested_on": "M. abscessus", "assay": "MIC by broth microdilution, M. abscessus", "format": "cell-based"}, "[4]": {"tested_on": "Klebsiella pneumonia AG215", "assay": "MIC by broth microdilution, Klebsiella pneumonia", "format": "cell-based", "settings": "strain AG215 Klebsiella pneumonia"}, "[5]": {"tested_on": "rabbit reticulocyte ribosomes", "assay": "in-vitro translation assay, rabbit reticulocyte ribosomes", "format": "biochemical", "settings": "mammalian cytosolic ribosomes (rabbit)"}, "MRSA": {"tested_on": "MRSA", "assay": "MIC by broth microdilution, MRSA isolates", "format": "cell-based"}, "E coli wild type": {"tested_on": "E coli wild type", "assay": "MIC by broth microdilution, wild type E coli", "format": "cell-based"}, "[6]": {"tested_on": "A1555G mutant mitochondrial ribosome (human chimeric)", "assay": "in-vitro translation assay, human chimeric ribosomes, A1555G mutant mitochondrial decoding site", "format": "biochemical", "settings": "human mitochondrial decoding site with A1555G point mutation; read-out: IC50 Mitoch. A1555G", "excerpt": "as §1"}, "[7]": {"tested_on": "E coli carrying specific resistance determinants", "assay": "MIC by broth microdilution, E coli carrying specific resistance determinants", "format": "cell-based", "settings": "AAC(2′) AG106; Table 4 (Example 3)"}}, "note": "pIC50: −log10 of the molar value. Read-outs that look alike come from different tables or passages of the source."}
{"smiles": "NC[C@@H]1O[C@H](O[C@H]2[C@@H](O)[C@H](O[C@@H]3[C@@H](O)[C@H](N)C[C@H](N)[C@H]3O[C@H]3O[C@H](CN)[C@@H](O)[C@H](O)[C@H]3N)O[C@@H]2CO)[C@H](N)[C@@H](O)[C@@H]1O", "note": "[neomycin, Neomycin B, reference compound]", "values": [{"measurement": "pIC50", "setting": "[1]; mitochondrial, Table 3 (Example 1), read-out: IC50 Mit", "result": 5.37}, {"measurement": "pIC50", "setting": "[1]; mitochondrial, Table 3 (Example 2), read-out: IC50 Mit", "result": 5.37}, {"measurement": "pIC50", "setting": "[1]; mitochondrial, Table 4 (Example 3), read-out: IC50 Mit", "result": 5.37}, {"measurement": "Target specificity bacterial vs. Mitochondrial", "setting": "[1]; relative target specificity, bacterial vs. human mitochondrial", "result": "low"}, {"measurement": "pIC50", "setting": "[1]; ribosomes with a human mitochondrial decoding site, read-out: IC50 Mitoch.", "result": 5.37}, {"measurement": "pIC50", "setting": "[2]; cytosolic, Table 3 (Example 1), read-out: IC50 Cyt", "result": 4.46}, {"measurement": "pIC50", "setting": "[2]; cytosolic, Table 3 (Example 2), read-out: IC50 Cyt", "result": 4.46}, {"measurement": "pIC50", "setting": "[2]; cytosolic, Table 4 (Example 3), read-out: IC50 Cyt", "result": 4.46}, {"measurement": "pIC50", "setting": "[2]; ribosomes with a human cytosolic decoding site, read-out: IC50 Cytosolic", "result": 4.46}, {"measurement": "Disk diffusion 25 nmol N. gonorrhoeae", "setting": "N. gonorrhoeae", "result": "<8", "unit": "mm"}, {"measurement": "pIC50", "setting": "[3]; Mycobacterium smegmatis ribosomes, read-out: IC50 Bacterial", "result": 7.40}, {"measurement": "pIC50", "setting": "[3]; bacterial ribosome, Table 3 (Example 1), read-out: IC50 Bac", "result": 7.40}, {"measurement": "pIC50", "setting": "[3]; bacterial ribosome, Table 3 (Example 2), read-out: IC50 Bac", "result": 7.40}, {"measurement": "pIC50", "setting": "[3]; bacterial ribosome, Table 4 (Example 3), read-out: IC50 Bac", "result": 7.40}, {"measurement": "MIC M. abscessus ATCC 19977 WT", "setting": "M. abscessus; ATCC 19977 WT, Table 5 (Example 3)", "result": 16, "unit": "µg/mL"}, {"measurement": "MIC M. abscessus ATCC", "setting": "M. abscessus; ATCC, Table 4 (Example 3)", "result": 16, "unit": "µg/mL"}, {"measurement": "MIC M. abscessus Clin. Isol.", "setting": "M. abscessus; Clin. Isol., Table 4 (Example 3)", "result": 16, "unit": "µg/mL"}, {"measurement": "MIC M. abscessus clinical isolate", "setting": "M. abscessus; clinical isolate, Table 5 (Example 3)", "result": 16, "unit": "µg/mL"}, {"measurement": "MIC M. abscessus engineered Δeis2", "setting": "M. abscessus; engineered Δeis2, Table 5 (Example 3)", "result": 4, "unit": "µg/mL"}, {"measurement": "MIC AG215 K. pneumon", "setting": "[4]", "result": 0.5, "unit": "µg/mL"}, {"measurement": "pIC50", "setting": "[5]", "result": 4.31}, {"measurement": "MIC AG038 MRSA", "setting": "MRSA; clinical isolate AG038", "result": 0.25, "unit": "µg/mL"}, {"measurement": "MIC MRSA AG038", "setting": "MRSA; clinical isolate AG038, Table 1 (Example 3)", "result": 0.25, "unit": "µg/mL"}, {"measurement": "MIC AG039 MRSA AAC(6′)-I ANT(4′)-I", "setting": "MRSA; clinical isolate AG039, AAC(6′)-I ANT(4′)-I", "result": 128, "unit": "µg/mL"}, {"measurement": "MIC MRSA AG039", "setting": "MRSA; clinical isolate AG039, Table 1 (Example 3)", "result": 128, "unit": "µg/mL"}, {"measurement": "MIC AG042 MRSA AAC(6′)-I ANT(4′)-I APH(2′)", "setting": "MRSA; clinical isolate AG042, AAC(6′)-I ANT(4′)-I APH(2′)", "result": 128, "unit": "µg/mL"}, {"measurement": "MIC MRSA AG042", "setting": "MRSA; clinical isolate AG042, Table 1 (Example 3)", "result": 128, "unit": "µg/mL"}, {"measurement": "MIC MRSA AG044", "setting": "MRSA; clinical isolate AG044, Table 1 (Example 3)", "result": "0.5 to 1", "unit": "µg/mL"}, {"measurement": "MIC50 MRSA AG38", "setting": "MRSA; strain AG38, Table 1 (Example 2)", "result": "1 to 2", "unit": "µg/mL"}, {"measurement": "MIC50 MRSA AG39", "setting": "MRSA; strain AG39, Table 1 (Example 2)", "result": 128, "unit": "µg/mL"}, {"measurement": "MIC50 MRSA AG42", "setting": "MRSA; strain AG42, Table 1 (Example 2)", "result": 128, "unit": "µg/mL"}, {"measurement": "MIC50 MRSA AG44", "setting": "MRSA; strain AG44, Table 1 (Example 2)", "result": "0.5 to 1", "unit": "µg/mL"}, {"measurement": "MIC E coli AG006 Wild type", "setting": "E coli wild type; AG006 Wild type, Table 2 (Example 3)", "result": "0.25 to 0.5", "unit": "µg/mL"}, {"measurement": "MIC E coli AG104 Wild type", "setting": "E coli wild type; AG104 Wild type, Table 2 (Example 3)", "result": "0.5 to 1", "unit": "µg/mL"}, {"measurement": "MIC50 E coli BM13 (AG06) wt", "setting": "E coli wild type; BM13 (AG06) wt, Table 2A (Example 2)", "result": 1, "unit": "µg/mL"}, {"measurement": "MIC pH430 WT", "setting": "E coli wild type; E. coli strain pH430, WT", "result": 1, "unit": "μg/ml"}, {"measurement": "MIC WT", "setting": "E coli wild type; Table 3 (Example 1)", "result": 1, "unit": "µg/mL"}, {"measurement": "MIC WT", "setting": "E coli wild type; Table 3 (Example 2)", "result": 1, "unit": "µg/mL"}, {"measurement": "MIC E. coli WT", "setting": "E coli wild type; Table 4 (Example 3)", "result": 1, "unit": "µg/mL"}, {"measurement": "MIC E. coli WT", "setting": "E coli wild type; Table 5 (Example 3)", "result": "0.5 to 1", "unit": "µg/mL"}, {"measurement": "MIC AG001 E. coli WT", "setting": "E coli wild type; clinical isolate AG001, WT", "result": 1, "unit": "µg/mL"}, {"measurement": "MIC E coli AG001", "setting": "E coli wild type; clinical isolate AG001, Table 1 (Example 3)", "result": 4, "unit": "µg/mL"}, {"measurement": "MIC E coli AG003", "setting": "E coli wild type; clinical isolate AG003, Table 1 (Example 3)", "result": 1, "unit": "µg/mL"}, {"measurement": "MIC AG055 E. coli WT", "setting": "E coli wild type; clinical isolate AG055, WT", "result": 1, "unit": "µg/mL"}, {"measurement": "MIC E coli AG055", "setting": "E coli wild type; clinical isolate AG055, Table 1 (Example 3)", "result": 1, "unit": "µg/mL"}, {"measurement": "MIC AG160 E. coli WT", "setting": "E coli wild type; clinical isolate AG160 WT, Table 2 (Example 4)", "result": 1, "unit": "µg/mL"}, {"measurement": "MIC pH430 E. coli WT", "setting": "E coli wild type; engineered strain pH430 WT, Table 2 (Example 4)", "result": 1, "unit": "μg/ml"}, {"measurement": "MIC50 E coli pH430 WT", "setting": "E coli wild type; pH430 WT, Table 2B (Example 2)", "result": 1, "unit": "μg/ml"}, {"measurement": "MIC50 E coli AG01", "setting": "E coli wild type; strain AG01, Table 1 (Example 2)", "result": 2, "unit": "µg/mL"}, {"measurement": "MIC50 E coli AG03", "setting": "E coli wild type; strain AG03, Table 1 (Example 2)", "result": 1, "unit": "µg/mL"}, {"measurement": "MIC50 E coli AG55", "setting": "E coli wild type; strain AG55, Table 1 (Example 2)", "result": "1 to 2", "unit": "µg/mL"}, {"measurement": "MIC AG212 E. coli", "setting": "E coli wild type; strain AG212 E. coli (ATCC25922)", "result": "0.5 to 1", "unit": "µg/mL"}, {"measurement": "pIC50", "setting": "[6]", "result": 6.40}, {"measurement": "MIC E. coli AAC(2′) AG106", "setting": "[7]", "result": 8, "unit": "µg/mL"}]}
